≈ marks a conversion by molar mass, not a printed value. Like-named read-outs stand apart in the source and are kept apart here.
What was measured:
S. aureus ATCC 25923 [1] = assay: Antibacterial activity, post-exposure on preformed 18-h-old biofilms; format: cell-based, Staphylococcus aureus; conditions: ± SD; for inhibition at 25 µM / inhibition at 50 µM / inhibition at 100 µM / inhibition at 200 µM: Staphylococcus aureus; for inhibition at 25 µM: ATCC25923, 25 µM; for inhibition at 50 µM: ATCC25923, 50 µM; for inhibition at 100 µM: ATCC25923, 100 µM; for inhibition at 200 µM: ATCC25923, 200 µM
Outline: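 Compounds were applied to preformed 18-h biofilms after medium change and left 24 h. Read-outs: planktonic OD plus resazurin fluorescence (20 μM), biofilm metabolic activity by resazurin 30 min at 37 °C, then biomass by crystal violet absorbance at 595 nm after ethanol fixation.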

P. aeruginosa ATCC 9027 = assay: Antibacterial activity, pre-exposure; format: cell-based, Pseudomonas aeruginosa; conditions: for Average inhibition %, biofilms viability / Average inhibition %, planktonic cells viability / inhibition at 50 µM / inhibition at 100 µM / inhibition at 150 µM / inhibition at 200 µM: P. aeruginosa ATCC 9027, pre-exposure, ± SD; for inhibition at 50 µM / inhibition at 100 µM / inhibition at 150 µM / inhibition at 200 µM: Pseudomonas aeruginosa, ATCC9027
Outline: (§1)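 Compounds are diluted in DMSO and plated, then bacteria are added to test prevention of growth and biofilm formation. After 18 h at 37 °C with shaking, planktonic OD and resazurin fluorescence are measured. Washed biofilms receive resazurin (30 min S. aureus, 60 min A. baumannii, 90 min P. aeruginosa, 37 °C), then crystal violet.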

A. baumannii NCTC 13423 = assay: Antibacterial activity, pre-exposure; format: cell-based, Acinetobacter baumannii; conditions: for Average inhibition %, biofilms viability / Average inhibition %, planktonic cells viability / inhibition at 10 µM / inhibition at 15 µM / inhibition at 25 µM / inhibition at 50 µM: A. baumannii NCTC 13423, pre-exposure, ± SD; for inhibition at 10 µM / inhibition at 15 µM / inhibition at 25 µM / inhibition at 50 µM: Acinetobacter baumannii, NCTC13423
Outline: as §1

S. aureus ATCC 25923 [2] = assay: Antibacterial activity, pre-exposure (planktonic cells and biofilm formation); format: cell-based, Staphylococcus aureus; conditions: for MIC / inhibition at 5 µM / inhibition at 10 µM / inhibition at 15 µM / inhibition at 25 µM: Staphylococcus aureus, ATCC25923; for inhibition at 5 µM / inhibition at 10 µM / inhibition at 15 µM / inhibition at 25 µM / Average inhibition %, biofilms viability / Average inhibition %, planktonic cells viability: pre-exposure, ± SD
Outline: as §1

[3] = read-out: Average inhibition %, biofilms biomass
[4] = read-out: Average inhibition %, planktonic cells turbidity
[5] = 50 µM, read-out: Average inhibition %, biofilms biomass
[6] = 50 µM, read-out: Average inhibition %, planktonic cells turbidity
[7] = 10 µM, read-out: Average inhibition %, biofilms biomass
[8] = 10 µM, read-out: Average inhibition %, planktonic cells turbidity
[9] = 15 µM, read-out: Average inhibition %, biofilms biomass
[10] = 15 µM, read-out: Average inhibition %, planktonic cells turbidity
[11] = 25 µM, read-out: Average inhibition %, biofilms biomass
[12] = 25 µM, read-out: Average inhibition %, planktonic cells turbidity

CCCCCc1ccc(-c2ccc(CCC(N)(CO)CO)cc2)cc1 [Compound 15, 2-Amino-2-[2-(4′-pentyl-[1,1′-biphenyl]-4-yl)ethyl]propane-1,3-diol]
Average inhibition %, biofilms viability (S. aureus ATCC 25923 [1]; 25 µM): 19 ± 6.6% | Average inhibition %, planktonic cells viability (S. aureus ATCC 25923 [1]; 25 µM): 3.6 ± 6.3% | Average inhibition %, biofilms viability (S. aureus ATCC 25923 [1]; 50 µM): 30.8 ± 8.5% | Average inhibition %, planktonic cells viability (S. aureus ATCC 25923 [1]; 50 µM): 1.2 ± 2.1% | Average inhibition %, biofilms viability (S. aureus ATCC 25923 [1]; 100 µM): 31.9 ± 6.2% | Average inhibition %, planktonic cells viability (S. aureus ATCC 25923 [1]; 100 µM): 3.8 ± 6.6% | Average inhibition %, biofilms viability (S. aureus ATCC 25923 [1]; 200 µM): 38.7 ± 13.3% | Average inhibition %, planktonic cells viability (S. aureus ATCC 25923 [1]; 200 µM): 29.1 ± 25.2% | inhibition at 25 µM (S. aureus ATCC 25923 [1]; [3]): 34.9 ± 12.7% | inhibition at 25 µM (S. aureus ATCC 25923 [1]; [4]): 16.8 ± 10% | inhibition at 50 µM (S. aureus ATCC 25923 [1]; [3]): 44.9 ± 6.2% | inhibition at 50 µM (S. aureus ATCC 25923 [1]; [4]): 14.7 ± 13.4% | inhibition at 100 µM (S. aureus ATCC 25923 [1]; [3]): 43.6 ± 7.8% | inhibition at 100 µM (S. aureus ATCC 25923 [1]; [4]): 17.9 ± 1.1% | inhibition at 200 µM (S. aureus ATCC 25923 [1]; [3]): 45.5 ± 18.5% | inhibition at 200 µM (S. aureus ATCC 25923 [1]; [4]): 47.4 ± 13.9% | Average inhibition %, biofilms viability (P. aeruginosa ATCC 9027; 50 µM): 0 ± 0% | Average inhibition %, planktonic cells viability (P. aeruginosa ATCC 9027; 50 µM): 22.3 ± 2% | Average inhibition %, biofilms viability (P. aeruginosa ATCC 9027; 100 µM): 0 ± 0% | Average inhibition %, planktonic cells viability (P. aeruginosa ATCC 9027; 100 µM): 12 ± 14% | Average inhibition %, biofilms viability (P. aeruginosa ATCC 9027; 150 µM): 0.5 ± 0.8% | Average inhibition %, planktonic cells viability (P. aeruginosa ATCC 9027; 150 µM): 5.5 ± 6.3% | Average inhibition %, biofilms viability (P. aeruginosa ATCC 9027; 200 µM): 0 ± 0% | Average inhibition %, planktonic cells viability (P. aeruginosa ATCC 9027; 200 µM): 7.2 ± 6.3% | inhibition at 50 µM (P. aeruginosa ATCC 9027; [5]): 2.2 ± 2.2% | inhibition at 50 µM (P. aeruginosa ATCC 9027; [6]): 12.6 ± 9.1% | inhibition at 100 µM (P. aeruginosa ATCC 9027; 100 µM, read-out: Average inhibition %, biofilms biomass): 3.7 ± 3% | inhibition at 100 µM (P. aeruginosa ATCC 9027; 100 µM, read-out: Average inhibition %, planktonic cells turbidity): 11.3 ± 12.7% | inhibition at 150 µM (P. aeruginosa ATCC 9027; 150 µM, read-out: Average inhibition %, biofilms biomass): 4.4 ± 1.9% | inhibition at 150 µM (P. aeruginosa ATCC 9027; 150 µM, read-out: Average inhibition %, planktonic cells turbidity): 15.7 ± 13.7% | inhibition at 200 µM (P. aeruginosa ATCC 9027; 200 µM, read-out: Average inhibition %, biofilms biomass): 12 ± 10.7% | inhibition at 200 µM (P. aeruginosa ATCC 9027; 200 µM, read-out: Average inhibition %, planktonic cells turbidity): 13.7 ± 14.3% | MIC P. aeruginosa ATCC 9027 (P. aeruginosa ATCC 9027; pre-exposure, Inactive = no activity up to 200 μM, > = some inhibition but no MIC reached): Inactive | Average inhibition %, biofilms viability (A. baumannii NCTC 13423; 10 µM): 0 ± 0% | Average inhibition %, planktonic cells viability (A. baumannii NCTC 13423; 10 µM): 11 ± 1.5% | Average inhibition %, biofilms viability (A. baumannii NCTC 13423; 15 µM): 1 ± 1.5% | Average inhibition %, planktonic cells viability (A. baumannii NCTC 13423; 15 µM): 8.7 ± 2.5% | Average inhibition %, biofilms viability (A. baumannii NCTC 13423; 25 µM): 2.8 ± 2.6% | Average inhibition %, planktonic cells viability (A. baumannii NCTC 13423; 25 µM): 7.8 ± 6.9% | Average inhibition %, biofilms viability (A. baumannii NCTC 13423; 50 µM): 7.1 ± 0.8% | Average inhibition %, planktonic cells viability (A. baumannii NCTC 13423; 50 µM): 0 ± 0% | inhibition at 10 µM (A. baumannii NCTC 13423; [7]): 0% | inhibition at 10 µM (A. baumannii NCTC 13423; [8]): 0% | inhibition at 15 µM (A. baumannii NCTC 13423; [9]): 0.8 ± 1.4% | inhibition at 15 µM (A. baumannii NCTC 13423; [10]): 0% | inhibition at 25 µM (A. baumannii NCTC 13423; [11]): 0% | inhibition at 25 µM (A. baumannii NCTC 13423; [12]): 0% | inhibition at 50 µM (A. baumannii NCTC 13423; [5]): 4.8 ± 4.9% | inhibition at 50 µM (A. baumannii NCTC 13423; [6]): 0% | MIC A. baumannii NCTC 13423 (A. baumannii NCTC 13423; pre-exposure, Inactive = no activity up to 50 μM, > = some inhibition but no MIC reached): Inactive | Initial screening result (active = at least 60% inhibition of planktonic cells and biofilm formation) (S. aureus ATCC 25923 [2]; 50 μM, S. aureus): active | MIC (S. aureus ATCC 25923 [2]; lowest concentration with no visible growth (>90% inhibition of turbidity and viability of planktonic cells), 18 h, read-out: MIC S. aureus ATCC 25923): 25 to 100 µM (≈ 8.54 to 34.1 µg/mL) | inhibition at 5 µM (S. aureus ATCC 25923 [2]; 5 µM, read-out: Average inhibition %, biofilms biomass): 44.4 ± 15% | inhibition at 5 µM (S. aureus ATCC 25923 [2]; 5 µM, read-out: Average inhibition %, planktonic cells turbidity): 44.9 ± 12.3% | inhibition at 10 µM (S. aureus ATCC 25923 [2]; [7]): 68.5 ± 20.6% | inhibition at 10 µM (S. aureus ATCC 25923 [2]; [8]): 70.3 ± 19.8% | inhibition at 15 µM (S. aureus ATCC 25923 [2]; [9]): 75.8 ± 18.7% | inhibition at 15 µM (S. aureus ATCC 25923 [2]; [10]): 72.5 ± 23.2% | inhibition at 25 µM (S. aureus ATCC 25923 [2]; [11]): 70.7 ± 26.8% | inhibition at 25 µM (S. aureus ATCC 25923 [2]; [12]): 76.5 ± 19.4% | MIC (S. aureus ATCC 25923 [2]; read-out: MIC (S. aureus)): 25 to 100 µM (≈ 8.54 to 34.1 µg/mL) | Average inhibition %, biofilms viability (S. aureus ATCC 25923 [2]; 5 µM): 42.5 ± 7.6% | Average inhibition %, planktonic cells viability (S. aureus ATCC 25923 [2]; 5 µM): 2.6 ± 4.5% | Average inhibition %, biofilms viability (S. aureus ATCC 25923 [2]; 10 µM): 71.3 ± 19.4% | Average inhibition %, planktonic cells viability (S. aureus ATCC 25923 [2]; 10 µM): 50.9 ± 46% | Average inhibition %, biofilms viability (S. aureus ATCC 25923 [2]; 15 µM): 70.4 ± 24.5% | Average inhibition %, planktonic cells viability (S. aureus ATCC 25923 [2]; 15 µM): 33.2 ± 57.6% | Average inhibition %, biofilms viability (S. aureus ATCC 25923 [2]; 25 µM): 79.3 ± 18.7% | Average inhibition %, planktonic cells viability (S. aureus ATCC 25923 [2]; 25 µM): 33.1 ± 57.3%

From PMC8296573, “Synthesis and Biological Evaluation of Fingolimod Derivatives as Antibacterial Agents” (ACS Omega, 2021)
